Assay results published in patent US8461085B2, “Bioherbicide from Festuca spp” (Cornell Research Foundation, Inc., priority 2005, dated 2013).
Like-named read-outs stand apart in the source and are kept apart here.

Columns and labels:
[1] = system: Metarhizium anisopliae (Metsch.); test: Fungal disc assay; format: cell-based; details: even at concentrations as high as 25 mM
Procedure: (§1) m-Tyrosine was evaluated for its effect on several bacteria (Bacillus cereus, Bacillus subtilis, and Escherichia coli) grown on nutrient agar (Difco) plates (9 cm) and a fungal culture (Metarhizium anisopliae ([…].)) grown on potato dextrose agar (Difco) plates. These plates were spread with either 0.5 mL aliquots of a liquid bacterial culture grown for 18 h in nutrient broth or with 0.5 mL of a fungal spore suspension (1×10^6 spores/mL), and were allowed to dry for approximately 30 minutes. […] A disc moistened with 10 μl of water served as negative control, and positive controls consisted of discs spiked with ampicillin and tetracycline (5 μg). The plates were placed in an incubator at 25° C., and visually checked for zones of inhibition for up to four days. All experiments were performed in triplicate.

Bacillus cereus = test: Antibacterial disc assay; format: cell-based
Procedure: as §1

Escherichia coli = test: Antibacterial disc assay; format: cell-based
Procedure: as §1

Bacillus subtilis = test: Antibacterial disc assay; format: cell-based
Procedure: as §1

Barnyard grass = test: Weed and crop Petri dish bioassay, radicle length; format: in vivo, Echinochloa crus-galli (L.) Beauv.
Procedure: (§2) m-Tyrosine activity was bioassayed using selected weed and crop species. Growth inhibition as measured by radicle elongation was evaluated in dandelion (Taraxacum officinale Weber in […].), large crabgrass (Digitaria sanguinalis (L.) Scop.), velvetleaf (Abutilon theophrasti Medicus), black medic (Medicago lupulina L.), curly cress (Lepidium sativum L.), bamyardgrass (Echinochloa crus-galli.(L.) Beauv.), lettuce (Lactuca sativa L.), purslane (Portulaca oleracea L.), annual bluegrass (Poa annua L.), birdsfoot trefoil (Lotus corniculatus L.), broadleaf plantain (Plantago major L.), mouseear chickweed (Cerastium vulgatum L.), common chickweed (Stellaria media (L.) Vill.), white clover (Trifolium repens L.), wheat (Triticum aestivum L.), tomato (Lycopersicon esculentum var. esculentum P. Mill.), tobacco (Nicotiana tobacum L.), and sorghum sudangrass hybrid (Sorghum bicolor x Sudanese). Weeds were purchased from HerbiSeeds, England, tomato seeds were purchased from Agway (Ithaca N.Y.), and wheat, sudex and tobacco where donated by Pioneer Seeds (Johnson, Iowa). Seeds were sterilized by a water: ethanol mixture (1:1) for one minute and rinsed three times thoroughly in distilled water. […] At the end of the incubation period, radicle length was measured. […]

Lettuce = test: Weed and crop Petri dish bioassay, radicle length; format: in vivo, Lactuca sativa L.
Procedure: as §2

Wheat = test: Weed and crop Petri dish bioassay, radicle length; format: in vivo, Triticum aestivum L.
Procedure: as §2

Tobacco = test: Weed and crop Petri dish bioassay, radicle length; format: in vivo, Nicotiana tobacum L.
Procedure: (§3) m-Tyrosine activity was bioassayed using selected weed and crop species. Growth inhibition as measured by radicle elongation was evaluated in dandelion (Taraxacum officinale Weber in […].), large crabgrass (Digitaria sanguinalis (L.) Scop.), velvetleaf (Abutilon theophrasti Medicus), black medic (Medicago lupulina L.), curly cress (Lepidium sativum L.), bamyardgrass (Echinochloa crus-galli.(L.) Beauv.), lettuce (Lactuca sativa L.), purslane (Portulaca oleracea L.), annual bluegrass (Poa annua L.), birdsfoot trefoil (Lotus corniculatus L.), broadleaf plantain (Plantago major L.), mouseear chickweed (Cerastium vulgatum L.), common chickweed (Stellaria media (L.) Vill.), white clover (Trifolium repens L.), wheat (Triticum aestivum L.), tomato (Lycopersicon esculentum var. esculentum P. Mill.), tobacco (Nicotiana tobacum L.), and sorghum sudangrass hybrid (Sorghum bicolor x Sudanese). Weeds were purchased from HerbiSeeds, England, tomato seeds were purchased from Agway (Ithaca N.Y.), and wheat, sudex and tobacco where donated by Pioneer Seeds (Johnson, Iowa). Seeds were sterilized by a water: ethanol mixture (1:1) for one minute and rinsed three times thoroughly in distilled water. The simple phytotoxicity bioassay utilized consisted of the evaluation of radicle length of ten sterilized seeds of each weed/crop deposited on a filter paper containing the appropriate m-tyrosine test solution in 4.5 cm Petri dishes. […] A 1000 μL aliquot of the appropriate test solution was added to individual Petri dishes lined with Whatman No. 1 filter paper. Control dishes received 1000 μL of water. After seeds were placed on moistened filter paper, Petri dishes were transferred to a controlled environment with a light regime of 45,33 photon m^-2 s^-1 and maintained at an average temperature of 25° C. for 7 days. At the end of the incubation period, radicle length was measured. Treatments were replicated three times, and the experiment for each plant species tested was repeated three times.

Birdsfoot trefoil = test: Weed and crop Petri dish bioassay, radicle length; format: in vivo, Lotus corniculatus L.
Procedure: as §2

Annual bluegrass = test: Weed and crop Petri dish bioassay, radicle length; format: in vivo, Poa annua L.
Procedure: as §3

Black Medic = test: Weed and crop Petri dish bioassay, radicle length; format: in vivo, Medicago lupulina L.
Procedure: as §2

[2] = system: selected monocot and dicot plants; test: General phytotoxicity Petri dish bioassay, weed and crop species taken together; format: in vivo
Procedure: Using the Petri dish bioassay described above, various weed and crop species were tested for their susceptibility to m-tyrosine. Concentrations evaluated were 10, 20, 40, 80, 160, and 320 μM m-tyrosine dissolved in water.
m-Tyrosine activity was bioassayed using selected weed and crop species. Growth inhibition as measured by radicle elongation was evaluated in dandelion (Taraxacum officinale Weber in Weggers.), large crabgrass (Digitaria sanguinalis (L.) Scop.), velvetleaf (Abutilon theophrasti Medicus), black medic (Medicago lupulina L.), curly cress (Lepidium sativum L.), bamyardgrass (Echinochloa crus-galli.(L.) Beauv.), lettuce (Lactuca sativa L.), purslane (Portulaca oleracea L.), annual bluegrass (Poa annua L.), birdsfoot trefoil (Lotus corniculatus L.), broadleaf plantain (Plantago major L.), mouseear chickweed (Cerastium vulgatum L.), common chickweed (Stellaria media (L.) Vill.), white clover (Trifolium repens L.), wheat (Triticum aestivum L.), tomato (Lycopersicon esculentum var. esculentum P. Mill.), tobacco (Nicotiana tobacum L.), and sorghum sudangrass hybrid (Sorghum bicolor x Sudanese). Weeds were purchased from HerbiSeeds, England, tomato seeds were purchased from Agway (Ithaca N.Y.), and wheat, sudex and tobacco where donated by Pioneer Seeds (Johnson, Iowa). Seeds were sterilized by a water: ethanol mixture (1:1) for one minute and rinsed three times thoroughly in distilled water. The simple phytotoxicity bioassay utilized consisted of the evaluation of radicle length of ten sterilized seeds of each weed/crop deposited on a filter paper containing the appropriate m-tyrosine test solution in 4.5 cm Petri dishes. The amino acid analog, m-tyrosine was purchased from Sigma and formulated at concentrations of 0, 20, 40, 80, 160 and 320 μM by initially dissolving in aqueous solutions. A 1000 μL aliquot of the appropriate test solution was added to individual Petri dishes lined with Whatman No. 1 filter paper. Control dishes received 1000 μL of water. After seeds were placed on moistened filter paper, Petri dishes were transferred to a controlled environment with a light regime of 45,33 photon m^−2 s^−1 and maintained at an average temperature of 25° C. for 7 days. At the end of the incubation period, radicle length was measured. Treatments were replicated three times, and the experiment for each plant species tested was repeated three times.

Velvetleaf = test: Weed and crop Petri dish bioassay, radicle length; format: in vivo, Abutilon theophrasti Medicus
Procedure: as §2

Broadleaf Plantain = test: Weed and crop Petri dish bioassay, radicle length; format: in vivo, Plantago major L.
Procedure: as §2

Large Crabgrass = test: Weed and crop Petri dish bioassay, radicle length; format: in vivo, Digitaria sanguinalis (L.) Scop.
Procedure: as §3

N[C@@H](Cc1cccc(O)c1)C(=O)O [m-tyrosine, 3-hydroxyphenylalanine]
sensitivity of fungal cultures [1]: not sensitive
growth inhibition (Bacillus cereus): not inhibited
growth inhibition (Escherichia coli): not inhibited
growth inhibition (Bacillus subtilis): not inhibited
I10 (Barnyard grass): 80 µM
IC50 (Barnyard grass; Echinochloa crus-galli, read-out: I50): 257 µM
I10 (Lettuce): 6 µM
IC50 (Lettuce; Lactuca sativa, read-out: I50): 20 µM
I10 (Wheat): 80 µM
IC50 (Wheat; Triticum aestivum, read-out: I50): 157 µM
I10 (Tobacco): 30 µM
I100 (Tobacco): 160 µM
IC50 (Tobacco; Nicotiana tabacum, read-out: I50): 40 µM
I10 (Birdsfoot trefoil): 20 µM
IC50 (Birdsfoot trefoil; Lotus corniculatus, read-out: I50): 42 µM
I10 (Annual bluegrass): 25 µM
I100 (Annual bluegrass): 320 µM
IC50 (Annual bluegrass; Poa annua, read-out: I50): 47 µM
I10 (Black Medic): 40 µM
IC50 (Black Medic; Medicago lupulina, read-out: I50): 84 µM
effect on shoot elongation ([2]; in vivo): inhibitory to shoot elongation
effect on seed germination ([2]; numerous seedling indicators): did not affect seed germination per se
IC50 ([2]; range over all plants exposed, read-out: concentration required to observe 50% inhibition of radicle elongation): 10 to 260 µM
IC50 ([2]; range over other species evaluated (apart from mouseear chickweed), read-out: concentration for 50% inhibition of radicle elongation): 14 to 253 µM
I10 (Velvetleaf): 40 µM
IC50 (Velvetleaf; Abutilon theophrasti, read-out: I50): 168 µM
I10 (Broadleaf Plantain): 30 µM
IC50 (Broadleaf Plantain; Plantago major, read-out: I50): 72 µM
I10 (Large Crabgrass): 20 µM
I100 (Large Crabgrass): 320 µM
IC50 (Large Crabgrass; Digitaria sanguinalis, read-out: I50): 38 µM
